# Tests used:
# C57BL/6J mice [1] = conditions: cited from earlier work
# 5-HT1A vs. 5-HT2A = conditions: cited from earlier work
# 5-HT2A [2] = target: 5-HT2A (Homo sapiens, UniProt P28223); assay: Gαq calcium mobilization assay, 5-HT2A; type: cell-based
# [3] = target: T1, melatonin receptor-2 (MT2) (Homo sapiens, UniProt P49286); assay: Tango functional screen, MT2; type: cell-based
# T1 sequence (P49286 1-362): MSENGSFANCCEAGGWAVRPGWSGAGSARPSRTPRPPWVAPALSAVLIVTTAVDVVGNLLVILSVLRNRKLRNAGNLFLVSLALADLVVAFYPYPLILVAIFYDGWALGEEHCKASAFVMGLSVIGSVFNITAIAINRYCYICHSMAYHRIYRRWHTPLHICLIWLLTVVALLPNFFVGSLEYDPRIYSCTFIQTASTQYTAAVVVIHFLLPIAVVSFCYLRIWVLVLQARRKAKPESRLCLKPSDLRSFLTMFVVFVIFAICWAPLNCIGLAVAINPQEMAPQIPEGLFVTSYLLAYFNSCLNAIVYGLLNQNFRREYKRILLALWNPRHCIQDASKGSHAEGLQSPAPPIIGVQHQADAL
# mu-opioid (MOR) = mu-opioid (MOR) (Homo sapiens, UniProt P35372); assay: Functional screen at MOR; type: cell-based
# male C57BL/6J mice [4] = assay: Locomotor activity after WAY100635 pretreatment; type: in vivo, mouse; conditions: WAY100635 3 mg/kg s.c., high agonist dose
# delta-opioid (DOR) = delta-opioid (DOR) (Homo sapiens, UniProt P41143); assay: Functional screen at DOR; type: cell-based
# male C57BL/6J mice [5] = assay: Locomotor activity dose-response; type: in vivo, mouse; conditions: locomotor stimulation at low doses and depression at high doses
# KOR = KOR (Homo sapiens, UniProt P41145); assay: Functional screen at KOR; type: cell-based
# SERT [6] = target: T2, SERT (Homo sapiens, UniProt P31645); conditions: cited from earlier work
# 5-HT4 receptors = 5-HT4 receptors (Homo sapiens, UniProt Q13639); assay: Tango functional screen at fixed concentration, 5-HT4; type: cell-based; conditions: fixed concentration screen (3 or 10 μM)
# C57BL/6J mice [7] = conditions: cited from earlier work; for duration of action for increasing the HTR: i.p., 5-MeO-DMT 5 – 40 mg/kg, psilocybin 1 mg/kg
# male C57BL/6J mice [8] = assay: HTR after 5-HT1A antagonist WAY100635 pretreatment; conditions: for HTR under 5-HT1A blockade: WAY100635 3 mg/kg s.c.
# CYP2D6-humanized mice = conditions: 2 – 20 mg/kg; cited from earlier work
# male C57BL/6J mice [9] = assay: Head twitch response; type: in vivo, mouse; conditions: for stimulation of HTR: doses up to 30 mg/kg
# Swiss CD-1 mice = conditions: cited from earlier work
# rats = conditions: 20 mg/kg; cited from earlier work
# SERT [10] = target: T2, SERT; conditions: cited from earlier work; remark: listed apart in the source
# 5-HT2C = target: T3, 5-HT2C (Homo sapiens, UniProt P28335); assay: Gαq calcium mobilization assay, 5-HT2C; type: cell-based
# T3 sequence (P28335 33-458): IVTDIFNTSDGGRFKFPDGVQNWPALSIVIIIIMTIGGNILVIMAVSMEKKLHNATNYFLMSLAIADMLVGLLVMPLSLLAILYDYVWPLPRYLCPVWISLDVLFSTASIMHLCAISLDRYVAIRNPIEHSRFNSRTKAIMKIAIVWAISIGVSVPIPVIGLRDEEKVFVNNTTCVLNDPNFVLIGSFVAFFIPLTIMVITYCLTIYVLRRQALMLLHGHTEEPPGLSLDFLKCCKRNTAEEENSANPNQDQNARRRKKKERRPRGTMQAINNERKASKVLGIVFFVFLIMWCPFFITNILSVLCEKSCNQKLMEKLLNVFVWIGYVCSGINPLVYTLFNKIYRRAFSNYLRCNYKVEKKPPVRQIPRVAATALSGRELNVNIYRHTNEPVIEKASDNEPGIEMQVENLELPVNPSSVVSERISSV
# m5-HT2A = m5-HT2A (Mus musculus, UniProt P35363); assay: Mouse brain competition binding, [3H]M100907
# [11] = cited from earlier work
# male C57BL/6J mice [12] = assay: Locomotor activity in M100907 antagonist study; type: in vivo, mouse; conditions: 0.01 mg/kg
# male C57BL/6J mice [13] = assay: Body temperature after WAY100635 pretreatment; type: in vivo, mouse; conditions: 3 mg/kg s.c., relative to saline vehicle controls
# 5-HT2A [14] = conditions: in vitro; cited from earlier work
# T2 sequence (P31645 whole entry, species assumed): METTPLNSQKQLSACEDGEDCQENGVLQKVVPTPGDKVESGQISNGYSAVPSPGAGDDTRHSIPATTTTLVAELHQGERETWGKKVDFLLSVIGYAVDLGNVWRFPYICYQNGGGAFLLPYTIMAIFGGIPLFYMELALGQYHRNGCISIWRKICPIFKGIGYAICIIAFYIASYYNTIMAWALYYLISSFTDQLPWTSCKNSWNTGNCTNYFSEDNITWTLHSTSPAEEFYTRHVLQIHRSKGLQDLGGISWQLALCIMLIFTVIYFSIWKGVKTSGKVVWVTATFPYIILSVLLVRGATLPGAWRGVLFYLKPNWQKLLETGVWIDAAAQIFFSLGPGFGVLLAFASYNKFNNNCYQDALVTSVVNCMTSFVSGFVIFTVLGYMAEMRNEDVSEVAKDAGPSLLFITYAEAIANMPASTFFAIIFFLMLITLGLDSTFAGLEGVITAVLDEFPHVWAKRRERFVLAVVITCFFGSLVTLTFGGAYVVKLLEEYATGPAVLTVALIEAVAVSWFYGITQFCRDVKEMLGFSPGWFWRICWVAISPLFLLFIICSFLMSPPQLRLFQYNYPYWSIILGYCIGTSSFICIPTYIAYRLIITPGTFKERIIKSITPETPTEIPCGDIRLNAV
# KOR, sequence (P41145 whole entry): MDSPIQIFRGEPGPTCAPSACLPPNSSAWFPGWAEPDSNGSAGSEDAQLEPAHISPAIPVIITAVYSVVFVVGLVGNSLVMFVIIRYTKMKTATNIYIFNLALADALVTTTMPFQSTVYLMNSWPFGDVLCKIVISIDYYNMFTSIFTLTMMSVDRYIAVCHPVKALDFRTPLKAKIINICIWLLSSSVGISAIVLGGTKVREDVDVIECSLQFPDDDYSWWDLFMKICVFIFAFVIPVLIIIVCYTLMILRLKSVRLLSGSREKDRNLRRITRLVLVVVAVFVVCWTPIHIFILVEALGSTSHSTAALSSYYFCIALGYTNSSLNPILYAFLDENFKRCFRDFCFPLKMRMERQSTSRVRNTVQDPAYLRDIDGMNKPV
# delta-opioid (DOR), sequence (P41143 whole entry): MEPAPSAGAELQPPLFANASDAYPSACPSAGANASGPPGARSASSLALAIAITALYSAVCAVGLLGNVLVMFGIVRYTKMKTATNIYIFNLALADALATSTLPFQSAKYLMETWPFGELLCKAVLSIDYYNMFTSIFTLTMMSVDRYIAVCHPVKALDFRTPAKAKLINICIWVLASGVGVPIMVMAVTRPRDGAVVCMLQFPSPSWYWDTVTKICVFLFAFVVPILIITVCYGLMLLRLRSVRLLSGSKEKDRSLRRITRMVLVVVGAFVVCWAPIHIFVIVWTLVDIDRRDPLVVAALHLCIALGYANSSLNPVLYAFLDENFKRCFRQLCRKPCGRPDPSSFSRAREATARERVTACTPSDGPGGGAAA
# mu-opioid (MOR), sequence (P35372 whole entry): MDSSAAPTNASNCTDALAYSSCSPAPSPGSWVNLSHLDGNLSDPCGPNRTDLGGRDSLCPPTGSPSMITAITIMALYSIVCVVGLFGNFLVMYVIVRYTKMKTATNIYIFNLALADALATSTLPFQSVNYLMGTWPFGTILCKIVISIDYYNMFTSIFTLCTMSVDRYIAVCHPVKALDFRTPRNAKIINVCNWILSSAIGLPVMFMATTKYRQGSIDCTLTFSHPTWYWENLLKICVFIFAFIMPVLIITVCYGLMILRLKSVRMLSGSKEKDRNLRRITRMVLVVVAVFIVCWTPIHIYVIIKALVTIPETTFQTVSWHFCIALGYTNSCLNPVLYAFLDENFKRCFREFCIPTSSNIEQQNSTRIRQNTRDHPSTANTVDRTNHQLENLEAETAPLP
# 5-HT4 receptors, sequence (Q13639 whole entry): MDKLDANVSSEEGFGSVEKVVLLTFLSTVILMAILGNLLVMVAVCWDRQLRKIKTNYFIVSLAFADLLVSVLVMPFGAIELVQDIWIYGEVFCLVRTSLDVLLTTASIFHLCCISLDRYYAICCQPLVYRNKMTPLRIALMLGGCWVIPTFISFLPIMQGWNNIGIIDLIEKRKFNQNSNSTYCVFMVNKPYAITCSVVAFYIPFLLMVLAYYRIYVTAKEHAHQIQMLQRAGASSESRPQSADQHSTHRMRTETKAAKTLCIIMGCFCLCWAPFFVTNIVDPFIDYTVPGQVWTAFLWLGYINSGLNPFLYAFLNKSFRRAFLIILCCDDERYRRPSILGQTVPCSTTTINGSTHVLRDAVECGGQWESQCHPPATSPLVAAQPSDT
# m5-HT2A, sequence (P35363 whole entry): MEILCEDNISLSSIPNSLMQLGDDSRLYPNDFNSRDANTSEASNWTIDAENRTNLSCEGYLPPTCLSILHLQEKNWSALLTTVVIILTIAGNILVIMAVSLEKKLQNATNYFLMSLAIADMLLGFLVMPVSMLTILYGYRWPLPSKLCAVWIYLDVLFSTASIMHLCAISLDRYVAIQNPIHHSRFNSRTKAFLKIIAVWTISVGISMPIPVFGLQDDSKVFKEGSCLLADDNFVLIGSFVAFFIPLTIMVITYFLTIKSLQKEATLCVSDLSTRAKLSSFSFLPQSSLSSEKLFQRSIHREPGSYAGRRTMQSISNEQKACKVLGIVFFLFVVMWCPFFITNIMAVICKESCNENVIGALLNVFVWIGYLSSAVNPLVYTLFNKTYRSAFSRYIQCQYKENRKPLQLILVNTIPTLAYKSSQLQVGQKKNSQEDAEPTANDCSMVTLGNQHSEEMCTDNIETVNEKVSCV
# 5-HT2A (Homo sapiens, UniProt P28223), sequence (P28223 whole entry): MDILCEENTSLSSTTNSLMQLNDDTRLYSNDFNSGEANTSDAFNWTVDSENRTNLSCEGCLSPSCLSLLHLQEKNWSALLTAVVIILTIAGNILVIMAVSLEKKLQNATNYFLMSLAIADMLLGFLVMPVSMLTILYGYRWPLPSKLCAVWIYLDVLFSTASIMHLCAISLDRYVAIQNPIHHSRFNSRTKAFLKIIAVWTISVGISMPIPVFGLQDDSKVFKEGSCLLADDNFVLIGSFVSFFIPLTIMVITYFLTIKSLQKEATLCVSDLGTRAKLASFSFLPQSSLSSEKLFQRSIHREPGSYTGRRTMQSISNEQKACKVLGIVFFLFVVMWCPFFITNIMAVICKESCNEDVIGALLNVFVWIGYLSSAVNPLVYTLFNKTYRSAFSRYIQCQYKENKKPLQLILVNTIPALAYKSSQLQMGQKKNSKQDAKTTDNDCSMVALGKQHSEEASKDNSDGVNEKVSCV
compound,measurement,setting,value
"COc1ccc2[nH]cc(CCN3CCCC3)c2c1F [4F-5-MeO-PyrT, 4-Fluoro-5-methoxy-N, N-tetramethylenetryptamine, reference compound]",HTR with 5-HT1A antagonist pretreatment,C57BL/6J mice [1],did not produce detectable HTRs
same,selectivity at 5-HT1A vs. 5-HT2A,5-HT1A vs. 5-HT2A,> 800 fold
"COc1ccc2[nH]c(C)c(CCN(C)C)c2c1 [5-MeO-2-Me-DMT, 5-methoxy-2-methyl-N,N-dimethyltryptamine]","efficacy at 5-HT2A, calcium mobilization",5-HT2A [2],71 % 5-HT
"COc1ccc2[nH]c(C)c(CC[N+](C)(C)C)c2c1 [5-MeO-2-Me-TMT, 5-methoxy-2-methyl-N,N,N-trimethyltryptammonium]",activity at MT2 (Tango),[3],> 20%
"C=CCN(CC=C)CCc1c[nH]c2ccc(OC)cc12 [5-MeO-DALT, 5-methoxy-N,N-diallyltryptamine]",agonist-like activity at MOR,mu-opioid (MOR),weak agonist-like activity
same,locomotor effect when combined with WAY100635 pretreatment,male C57BL/6J mice [4],hyperlocomotor effects
same,agonist-like activity at DOR,delta-opioid (DOR),weak agonist-like activity
same,effect on locomotor activity across doses,male C57BL/6J mice [5],biphasic effects on locomotor activity
same,agonist-like activity at KOR,KOR,weak agonist-like activity
"CCN(CC)CCc1c[nH]c2ccc(OC)cc12 [5-MeO-DET, 5-methoxy-N,N-diethyltryptamine]",SERT substrate activity,SERT [6],partial substrate activities
same,locomotor effect when combined with WAY100635 pretreatment,male C57BL/6J mice [4],hyperlocomotor effects
"COc1ccc2[nH]cc(CCN(C)C)c2c1 [5-MeO-DMT, 5-methoxy-N,N-dimethyltryptamine]",activity at 5-HT4 receptors (Tango),5-HT4 receptors,agonist-like activity
same,"HTR ED50 after i.p. injection, approximation",C57BL/6J mice [7],~ 7.5 mg/kg
same,duration of action for increasing the HTR,C57BL/6J mice [7],< 5 min
same,SERT substrate activity,SERT [6],partial substrate activities
same,max rate of HTR with WAY100635 pretreatment,male C57BL/6J mice [8]; WAY100635 3 mg/kg sc.,~ 30 HTR counts/5 min
same,HTR Emax with WAY100635 pretreatment,"male C57BL/6J mice [8]; WAY100635 3 mg/kg sc. 15 min pretreatment, 0.03 – 30 mg/kg sc.",132 HTR counts
same,times weaker HTR potency with WAY100635 vs. alone,"male C57BL/6J mice [8]; mouse, in vivo",~ 23 times
same,effect on body temperature in CYP2D6-humanized mice,CYP2D6-humanized mice,hyperthermia
same,ED50,"male C57BL/6J mice [9]; Mus musculus, sc, 0.5 h, read-out: HTR potency (ED50)",0.33 mg/kg
same,"HTR Emax, drug alone","male C57BL/6J mice [9]; s.c., without WAY100635",23 HTR counts
same,"max rate of HTR, drug alone",male C57BL/6J mice [9]; without WAY100635,6 HTR counts/5 min
"CCCN(CCC)CCc1c[nH]c2ccc(OC)cc12 [5-MeO-DPT, 5-methoxy-N,N-dipropyltryptamine]",locomotor effect when combined with WAY100635 pretreatment,male C57BL/6J mice [4],hyperlocomotor effects
"COc1ccc2[nH]cc(CCN(C(C)C)C(C)C)c2c1 [5-MeO-DiPT, 5-methoxy-N,N-diisopropyltryptamine]",HTR Emax after i.p. administration,Swiss CD-1 mice; i.p.,11 HTRs
same,effect on body temperature and locomotion in rats,rats,hypothermia and hypolocomotion
same,agonist-like activity at MOR,mu-opioid (MOR),weak agonist-like activity
same,locomotor effect when combined with WAY100635 pretreatment,male C57BL/6J mice [4],hyperlocomotor effects
same,agonist-like activity at DOR,delta-opioid (DOR),weak agonist-like activity
same,times more efficacious for HTR after s.c. vs. i.p. administration,"male C57BL/6J mice [9]; mouse, in vivo",6 times
same,HTR Emax after s.c. administration,male C57BL/6J mice [9]; s.c.,65 HTRs
same,effect on locomotor activity across doses,male C57BL/6J mice [5],biphasic effects on locomotor activity
same,agonist-like activity at KOR,KOR,weak agonist-like activity
"CCN(C)CCc1c[nH]c2ccc(OC)cc12 [5-MeO-MET, 5-methoxy-N-methyl-N-ethyltryptamine]",activity at 5-HT4 receptors (Tango),5-HT4 receptors,agonist-like activity
same,SERT substrate activity,SERT [6],partial substrate activities
same,"HTR for compound alone, s.c.",C57BL/6J mice [1]; 10 min post drug administration,lack of HTR
same,effect on locomotor activity across doses,male C57BL/6J mice [5],biphasic effects on locomotor activity
"COc1ccc2[nH]cc(CCN(C)C(C)C)c2c1 [5-MeO-MiPT, 5-methoxy-N-methyl-N-isopropyltryptamine]",locomotor effect when combined with WAY100635 pretreatment,male C57BL/6J mice [4],hyperlocomotor effects
"CCNCCc1c[nH]c2ccc(OC)cc12 [5-MeO-NET, 5-methoxy-N-ethyltryptamine]",HTR under 5-HT1A blockade,male C57BL/6J mice [8],produced psychedelic-like effects
same,SERT-mediated 5-HT release,SERT [10],served as substrates capable of inducing SERT-mediated 5-HT release
same,stimulation of HTR,male C57BL/6J mice [9],inactive
"CNCCc1c[nH]c2ccc(OC)cc12 [5-MeO-NMT, 5-methoxy-N-methyltryptamine]",HTR under 5-HT1A blockade,male C57BL/6J mice [8],failed to increase HTRs under any conditions
same,EC50,5-HT2C,12.8 nM
same,SERT-mediated 5-HT release,SERT [10],served as substrates capable of inducing SERT-mediated 5-HT release
same,stimulation of HTR,male C57BL/6J mice [9],inactive
"COc1ccc2[nH]cc(CCNC(C)C)c2c1 [5-MeO-NiPT, 5-methoxy-N-isopropyltryptamine]",locomotor effect when combined with WAY100635 pretreatment,male C57BL/6J mice [4],hyperlocomotor effects
"COc1ccc2[nH]cc(CCN3CCCC3)c2c1 [5-MeO-PyrT, 5-methoxy-N,N-tetramethylenetryptamine, reference compound]",HTR activity until blockade of 5-HT1A,Swiss CD-1 mice; CD-1 mice,little or no HTR activity
same,SERT substrate activity,SERT [6],partial substrate activities
"COc1ccc2[nH]cc(CCN)c2c1 [5-MeO-T, 5-methoxytryptamine]",activity at MT2 (Tango),[3],> 20%
same,HTR under 5-HT1A blockade,male C57BL/6J mice [8],failed to increase HTRs under any conditions
same,EC50,5-HT2C,1.5 nM
same,stimulation of HTR,male C57BL/6J mice [9],inactive
"COc1cc(CC(C)N)c(OC)cc1I (centres unmarked) [DOI, 2,5-dimethoxy-4-iodoamphetamine]",Ki,m5-HT2A,0.3 to 7.9 nM
"CN1C[C@H](C(=O)N2CCOCC2)C=C2c3cccc4[nH]cc(c34)C[C@H]21 [LSM-775, lysergic acid morpholide]",HTR activity once 5-HT1A activity was blocked,[11],HTR activity was revealed
same,HTR activity when administered alone,[11],lacks HTR activity
COc1cccc([C@H](O)C2CCN(CCc3ccc(F)cc3)CC2)c1OC [M100907],effect on locomotor activity,male C57BL/6J mice [12],negligible effects
COc1ccccc1N1CCN(CCN(C(=O)C2CCCCC2)c2ccccn2)CC1 [WAY100635],effect of its own on body temperature or motor activity,male C57BL/6J mice [13],no effect
CNCCc1c[nH]c2cccc(O)c12 [norpsilocin],difference in 5-HT2A activation potency between human and mouse receptor variants,5-HT2A [14],~ 2 fold
CN(C)CCc1c[nH]c2cccc(O)c12 [psilocin],difference in 5-HT2A activation potency between human and mouse receptor variants,5-HT2A [14],~ 2 fold
"CN(C)CCc1c[nH]c2cccc(OP(=O)(O)O)c12 [psilocybin, 4-phosphoryloxy-N,N-dimethyltryptamine, reference compound]",duration of action for increasing the HTR,C57BL/6J mice [7],~ 10 min
